The results in this text go back to ChEMBL document CHEMBL1158174, “The antioxidant activity of 2-(4(or 2)-hydroxyl-5-chloride-1,3-benzene-di-sulfanimide)-chitosan” (Eur J Med Chem, 2008).

Some results are limits rather than exact numbers.

A short description of experiment [1]: Antioxidant activity assessed as hydroxyl radical scavenging activity. It counts as functional.
A short description of experiment [2]: Antioxidant activity assessed as superoxide radical scavenging activity at 0.40 mg/mL. It is filed as functional.

In the case of `O=C1O[C@H]([C@@H](O)CO)C(O)=C1O` [ASCORBIC ACID], the IC50 in experiment [1] was greater than 711 µg/mL. Besides, the Activity in experiment [2] turned out to be 33.9%.

A word on the IC50: it is the concentration that inhibits the measured activity by half.
